Measured values taken from ChEMBL document CHEMBL1201862, “PubChem BioAssay data set” (2004).
The source made the active and inactive calls.

Tests used:
[1] = molecular target: FAD-linked sulfhydryl oxidase ALR (Homo sapiens, UniProt P55789); experiment: inhibitors of human ALR sulfhydryl oxidase, dose response, biochemical, H2O2 detection, luminescence, cherry-pick (AID 493248)
cells = type: functional
Cytochrome P450 2D6 = Cytochrome P450 2D6 (Homo sapiens, UniProt P10635);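 also: CYP2D6 member of a cytochrome P450 panel assay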
[2] = molecular target: T1, Heat shock factor protein 1 (Mus musculus, UniProt P38532); experiment: HSF1 potentiators in luciferase reporter cells, confirmation, cell-based, NIH3T3, luminescence, dose retest (AID 435004); type: functional;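 also: stress induced by proteasome inhibitor MG132 added 30 min after compound; luciferase reporter driven by HSF1 response element in NIH3T3 cells; actives raise luminescence as potentiators of the MG132 stress response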
T1 sequence (P38532 whole entry): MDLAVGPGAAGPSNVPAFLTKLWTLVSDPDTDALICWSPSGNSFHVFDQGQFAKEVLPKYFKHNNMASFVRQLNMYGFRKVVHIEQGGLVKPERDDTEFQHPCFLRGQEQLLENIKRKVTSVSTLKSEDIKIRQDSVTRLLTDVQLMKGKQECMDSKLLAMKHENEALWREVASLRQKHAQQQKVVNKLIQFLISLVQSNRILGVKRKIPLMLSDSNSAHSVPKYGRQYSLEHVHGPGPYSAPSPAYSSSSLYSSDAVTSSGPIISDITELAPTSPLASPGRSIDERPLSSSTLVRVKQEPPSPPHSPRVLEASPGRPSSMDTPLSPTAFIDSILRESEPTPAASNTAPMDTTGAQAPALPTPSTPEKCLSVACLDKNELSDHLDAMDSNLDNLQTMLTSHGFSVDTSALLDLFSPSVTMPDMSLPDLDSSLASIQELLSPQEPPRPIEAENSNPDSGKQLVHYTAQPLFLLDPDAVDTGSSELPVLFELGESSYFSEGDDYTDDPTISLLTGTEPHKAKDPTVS

[3] = inhibitors of firefly luciferase expression or activity, dose response, H4 neuroglioma cells, luminescence (AID 1990); type: functional, cell-based
[4] = Luminescence Cell-Based Dose Response HTS to Identify Inhibitors of 5'UTR Stem-Loop Driven Prion Protein mRNA Translation in H4 Neuroglioblastoma Cells. [Related pubchem assays: 1827 (Project Summary), 1813 (Primary HTS)]; type: functional
[5] = inhibitors of SNCA 5'UTR-driven reporter translation, confirmation, H4 neuroglioma cells, luminescence (AID 1988); type: functional, cell-based
[6] = Luminescence Cell-Based Dose Retest to Confirm Inhibitors of Cancer Stem Cells. [Related pubchem assays (depositor defined):AID2717, AID2721]; type: functional; conditions: Homo sapiens
Cytochrome P450 2C19 = Cytochrome P450 2C19 (Homo sapiens, UniProt P33261); experiment: Cytochrome panel assay with activity outcomes. Panel member name: p450-cyp2c19 Compounds with AC50 equal or less than 10 uM are considered active; type: functional; conditions: read-out: AC50
[7] = test system: Streptococcus sp. 'group A'; experiment: growth inhibition of control SK(-) GAS strain, dose response, counter-screen for streptokinase expression inhibitor project, luminescence, kanamycin, BacTiterGlo, confirmation (AID 1900); type: functional, organism-based
Streptokinase A = molecular target: T2, Streptokinase A (Streptococcus pyogenes serotype M1, UniProt P10520); experiment: S. pyogenes streptokinase expression inhibitors, potency, dose response, plasminogen activation absorbance, OD405 (AID 1914); type: functional, Streptococcus pyogenes M1 GAS;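 also: secreted streptokinase activity via plasminogen activation per viability signal from cell pellet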
T2 sequence (P10520 whole entry): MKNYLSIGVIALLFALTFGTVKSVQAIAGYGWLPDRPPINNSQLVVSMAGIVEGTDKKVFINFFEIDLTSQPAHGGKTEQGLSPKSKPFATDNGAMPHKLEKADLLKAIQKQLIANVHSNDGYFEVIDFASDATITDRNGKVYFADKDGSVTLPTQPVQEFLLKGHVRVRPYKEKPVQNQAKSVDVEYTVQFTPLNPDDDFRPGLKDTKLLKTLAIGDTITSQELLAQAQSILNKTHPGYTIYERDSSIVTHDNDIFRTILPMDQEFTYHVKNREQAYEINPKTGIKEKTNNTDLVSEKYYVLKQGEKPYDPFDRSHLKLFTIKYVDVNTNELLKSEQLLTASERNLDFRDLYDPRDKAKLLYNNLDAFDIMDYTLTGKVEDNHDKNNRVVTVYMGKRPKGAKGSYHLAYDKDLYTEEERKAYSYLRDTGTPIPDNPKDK

Streptococcus = experiment: Group A Streptococcus viability loss, dose response, counter-screen for streptokinase expression inhibitor project, luminescence, BacTiterGlo (AID 1915); type: functional, organism-based;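 also: potency for reduction of bacterial viability or growth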
[8] = inhibitors of intracellular T. cruzi replication, confirmation, NIH3T3 host cells, beta-gal luminescence (AID 2044); type: functional, cell-based;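 also: intracellular parasites grown in NIH/3T3 mouse fibroblasts as host cells; luminescent beta-galactosidase reporter signal from transgenic T. cruzi replicating inside host cells; inhibitors lower the luminescence signal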
[9] = cytotoxicity toward NIH3T3 fibroblasts, dose response, counter-screen, cell-based, ATP luminescence, mouse fibroblasts (AID 2010); type: functional;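 also: cells exposed to compound for about 90 hours before reading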

Chain of Cytochrome P450 2D6 (P10635 whole entry): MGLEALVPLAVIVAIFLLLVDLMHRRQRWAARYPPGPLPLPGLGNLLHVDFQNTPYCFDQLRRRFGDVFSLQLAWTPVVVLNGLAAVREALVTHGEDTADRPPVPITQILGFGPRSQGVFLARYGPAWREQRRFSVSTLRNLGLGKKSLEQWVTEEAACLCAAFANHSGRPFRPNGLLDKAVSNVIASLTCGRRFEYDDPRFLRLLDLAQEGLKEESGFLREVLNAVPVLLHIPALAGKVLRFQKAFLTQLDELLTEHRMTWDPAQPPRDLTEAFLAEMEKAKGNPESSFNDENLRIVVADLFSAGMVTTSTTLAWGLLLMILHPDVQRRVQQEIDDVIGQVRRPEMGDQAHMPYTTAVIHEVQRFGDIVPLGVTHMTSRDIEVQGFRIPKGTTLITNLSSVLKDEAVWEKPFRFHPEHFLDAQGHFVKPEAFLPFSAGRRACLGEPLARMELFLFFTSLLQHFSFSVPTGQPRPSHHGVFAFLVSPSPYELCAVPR
Chain of FAD-linked sulfhydryl oxidase ALR (P55789 whole entry): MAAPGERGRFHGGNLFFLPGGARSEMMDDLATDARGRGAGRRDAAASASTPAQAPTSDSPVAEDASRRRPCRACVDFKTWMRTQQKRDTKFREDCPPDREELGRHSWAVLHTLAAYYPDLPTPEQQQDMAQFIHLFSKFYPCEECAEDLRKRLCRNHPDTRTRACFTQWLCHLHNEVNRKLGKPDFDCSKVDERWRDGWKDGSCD
Chain of Cytochrome P450 2C19 (P33261 whole entry): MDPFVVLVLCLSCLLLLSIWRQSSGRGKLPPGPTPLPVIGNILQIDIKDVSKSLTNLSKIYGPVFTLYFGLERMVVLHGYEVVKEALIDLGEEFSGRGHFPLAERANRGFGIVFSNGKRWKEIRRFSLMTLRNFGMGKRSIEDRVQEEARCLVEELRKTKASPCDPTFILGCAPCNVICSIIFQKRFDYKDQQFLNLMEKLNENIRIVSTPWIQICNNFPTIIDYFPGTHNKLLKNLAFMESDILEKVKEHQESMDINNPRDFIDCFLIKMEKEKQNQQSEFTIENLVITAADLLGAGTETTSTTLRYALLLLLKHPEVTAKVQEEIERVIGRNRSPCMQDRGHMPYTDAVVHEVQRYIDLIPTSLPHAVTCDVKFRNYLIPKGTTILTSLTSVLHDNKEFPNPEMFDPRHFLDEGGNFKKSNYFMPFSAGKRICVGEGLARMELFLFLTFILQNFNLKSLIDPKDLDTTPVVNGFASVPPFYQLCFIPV

Compound: COc1ccc(/C=N/Nc2ccccn2)c(OC)c1OC
- AC50 [1]: 0.484 µM (active)

Compound: CCOC(=O)COc1ccc2c3c(c(=O)oc2c1C)CCC3
- IC50 (cells): > 50 µM (active)

Compound: CN(C)c1ncc2nc(-c3ccc(F)cc3)c(=O)n(C[C@H]3CCCO3)c2n1
- AC50 (Cytochrome P450 2D6): 1.26 µM (inconclusive)

Compound: Cc1ccccc1CSc1nnc(-c2cccs2)n1Cc1ccco1
- AC50 (Cytochrome P450 2D6): 1.12 µM (inconclusive)

Compound: NC1=NC(=O)/C(=C/c2cn(Cc3ccccc3)c3ccccc23)S1
- EC50 [2]: > 260 µM (inactive)

Compound: Cc1cc(C)nc(NNC(=O)c2ccccc2O)n1
- AC50 [1]: 5.66 µM (active)

Compound: O=C(Cc1coc2cc3c(cc12)CCC3)OCC(=O)N1CCCC1=O
- EC50 [3]: > 60 µM (not active)
- EC50 [4]: > 60 µM (not active)
- EC50 [5]: 30.1 µM (active)

Compound: C/C(=N\NC(=O)c1cccc(N2CCCC2=O)c1)c1ccc(N)cc1
- AC50 [1]: 1.61 µM (active)

Compound: CCOC(=O)CCNC(=O)c1ccc2nc(C3CCCCC3)oc2c1
- IC50 (cells): 23.8 µM (active)

Compound: CCOCCOC(=O)COc1ccc2c(-c3ccccc3)cc(=O)oc2c1
- IC50 (cells): 1.77 µM (active)

Compound: Cc1ccc(Nc2c(-c3ccccc3O)nc3cnccn23)cc1
- AC50 [1]: 0.705 µM (active)

Compound: O=C(CC1S/C(=N\CCc2ccccc2)N(/N=C/c2cccs2)C1=O)Nc1ccc(Cl)cc1 (centres undefined)
- EC50 [2]: > 260 µM (inactive)

Compound: COc1c(OC(C)=O)ccc(/C=C/c2ccc3cccc(OCc4ccccc4)c3n2)c1[N+](=O)[O-]
- AC50 [6]: 1.67 µM (active)

Compound: c1ccc(C(c2ccccc2)N2CCN(c3ccc4ccccc4n3)CC2)cc1
- EC50 [3]: 16.8 µM (active)
- EC50 [4]: > 120 µM (not active)
- EC50 [5]: > 120 µM (not active)

Compound: CC(=O)c1ccc(-c2ccc([C@H]3[C@@H]4C=CCC[C@@]4(C)C(=O)N3Cc3ccccc3)c(F)c2)cc1
- AC50 [6]: 4.4 µM (active)

Compound: CCOC(=O)c1ccc(Nc2nc(-c3cccnc3)nc3ccccc23)cc1
- AC50 (Cytochrome P450 2D6): 10 µM (inconclusive)

Compound: O=C(c1cc2ccccc2o1)N1CCN=C1SCc1cccnc1
- AC50 [1]: 0.095 µM (active)

Compound: CN(C)C(=O)c1ccc(-c2nccc(N(C)Cc3ccco3)n2)cc1
- AC50 (Cytochrome P450 2C19): 25.1 µM (inconclusive)
- AC50 (Cytochrome P450 2D6): 25.1 µM (inconclusive)

Compound: CC(C)(C)OC(=O)[C@H](Cc1ccccc1)NC(=O)c1[nH]cnc1C(=O)Nc1cccc(Cl)c1
- EC50 [7]: 3.64 µM (active)
- EC50 (Streptokinase A): 38.3 µM (active)
- EC50 (Streptococcus): 21.7 µM (active)
- AC50 [6]: 3.36 µM (active)

Compound: O=C(Nc1cccc(NC(=O)c2ccccc2[N+](=O)[O-])n1)c1ccccc1[N+](=O)[O-]
- AC50 (Cytochrome P450 2D6): 20 µM (inconclusive)

Compound: Nc1n[nH]c(N2CCN(c3cccc(Cl)c3)CC2)n1
- AC50 [1]: 1.25 µM (active)

Compound: COc1cccc(/C=C2\N=C(SC)SC2=O)c1OC
- EC50 [2]: 241 µM (active)

Compound: CN=C(S)N(Cc1ccc(Cl)cc1)Cc1cccs1
- EC50 [2]: > 260 µM (inactive)

Compound: Cc1ccc(OCC(=O)N/N=C/c2cn(Cc3ccccc3)c3ccccc23)cc1
- EC50 [3]: 9.88 µM (active)
- EC50 [4]: 13.1 µM (active)
- EC50 [5]: 5.86 µM (active)

Compound: CCOC(=O)NC(=O)/C(C#N)=N/Nc1c(F)cccc1F
- EC50 [2]: > 260 µM (inactive)

Compound: CCc1nnc(N/N=C/c2ccc(N3CCC(C)CC3)c([N+](=O)[O-])c2)n1N
- IC50 (cells): 20 µM (active)

Compound: Cc1ccc(Sc2ccc(S(=O)(=O)Nc3ccc(C(=O)O)cc3)cc2)cc1C
- AC50 [1]: 20.7 µM (active)

Compound: O=C(OCc1ccc([N+](=O)[O-])cc1)c1cc2ccccc2oc1=O
- IC50 (cells): 23.2 µM (active)

Compound: CCOC(=O)C1CCN(c2ncnc3c2c(-c2ccccc2)cn3-c2ccccc2)CC1
- EC50 [8]: 2.23 µM (active)
- EC50 [9]: > 60 µM (not active)
- AC50 [6]: 3.11 µM (active)

Compound: Fc1cccc(-n2c(-c3cccs3)nc3nc4ccccc4nc32)c1
- AC50 [6]: 1.69 µM (active)

Compound: CC1CCCCN1c1ccc(N)cc1C(N)=O (centres undefined)
- AC50 [1]: 11.1 µM (active)

Compound: Cc1ccccc1-c1nc(N2CCNCC2)c2ccccc2n1
- AC50 (Cytochrome P450 2D6): 20 µM (inconclusive)

Compound: CCOC(=O)c1c(NC(NC(=O)C(C)C)C(Cl)(Cl)Cl)sc2c1CCC2 (centres undefined)
- AC50 [6]: 3.39 µM (active)

Compound: COc1cccc(N(C(=O)Cn2nnc(-c3cccs3)n2)C(C(=O)NC(C)C)c2ccc(C)o2)c1 (centres undefined)
- EC50 [3]: 16.4 µM (active)
- EC50 [4]: > 120 µM (not active)
- EC50 [5]: 18.8 µM (active)

Compound: COc1ccc(OCc2nnnn2-c2ccccc2)cc1
- EC50 [2]: > 260 µM (inactive)

Compound: CCOC(=O)Cn1cc(C#N)c2cccc(CC)c21
- IC50 (cells): 4.78 µM (active)

Compound: C=CC[C@@H]1C=C[C@H](O/N=C(\C)CCN2CCCc3nc(C)c(C)cc32)[C@H](CO)O1
- AC50 (Cytochrome P450 2D6): 3.16 µM (inconclusive)

Compound: Cc1csc(NC(=O)c2cc([N+](=O)[O-])cc([N+](=O)[O-])c2)n1
- IC50 (cells): 13.2 µM (active)

Compound: Cc1c(C(=O)N2CCOCC2)c(S(=O)(=O)Nc2cccc(Br)c2)c(C)n1C
- EC50 [3]: > 120 µM (not active)
- EC50 [4]: 32.2 µM (active)
- EC50 [5]: 15 µM (active)

Compound: CC1CCCCN1C(=O)COc1ccccc1F (centres undefined)
- EC50 [2]: > 260 µM (inactive)

Compound: O=C(c1csnn1)N1CCC2(CC1)CN(c1ccccc1)C2
- AC50 (Cytochrome P450 2C19): 39.8 µM (inconclusive)
- AC50 (Cytochrome P450 2D6): 15.8 µM (inconclusive)

Compound: COc1ccc(C(=O)Nc2cccc(/C=C/c3nc(O)c4ccccc4n3)c2)cc1
- AC50 [6]: 3.7 µM (active)

Compound: CC(=O)N1CCN=C1SCc1cccc(C(F)(F)F)c1
- AC50 [1]: 7.34 µM (active)

Compound: CC1C/C(=N/NC(=O)c2cccc(F)c2)c2ccc(O)cc2C1 (centres undefined)
- IC50 (cells): 34.6 µM (active)

Compound: N#Cc1ccsc1NC(=O)CN1CCN(c2ccccc2O)CC1
- AC50 [1]: 1.46 µM (active)

Compound: COC(CNC(=O)C1CCCN(S(=O)(=O)c2c(C)noc2/C=C/c2cccs2)C1)OC (centres undefined)
- EC50 [2]: 110 µM (active)

Compound: COc1cccc(Cn2c(=O)c(CCc3ccccc3)nc3cnc(N4CCN(C)CC4)nc32)c1
- AC50 (Cytochrome P450 2D6): 20 µM (inconclusive)

Compound: O=C(Nc1ccc(Nc2ccccc2)cc1)c1ccccc1
- AC50 [6]: 13.7 µM (active)

Compound: NS(=O)(=O)c1ccc(NC(S)=Nc2ccn(Cc3cccc4ccccc34)n2)cc1
- EC50 [3]: 15.6 µM (active)
- EC50 [4]: > 120 µM (not active)
- EC50 [5]: > 120 µM (not active)

Compound: Cc1c(C)c(C)c(C(=O)c2ccc(NC(=O)c3ccccc3C(=O)O)cc2)c(C)c1C
- AC50 [1]: 5.32 µM (active)

Compound: CCN(CC(=O)Nc1sc2c(c1C#N)CCCC2)Cc1nc(O)c2ccccc2n1
- EC50 [3]: 22.4 µM (active)
- EC50 [4]: > 120 µM (not active)
- EC50 [5]: > 120 µM (not active)

Compound: COc1ccc(N(CC(=O)Nc2cc(C)ccc2C)S(=O)(=O)c2c(C)noc2C)cc1
- AC50 [6]: 34.5 µM (active)

Compound: COc1ccc(CCN2/C(=N/C(=O)CCC(=O)O)SC3CS(=O)(=O)CC32)cc1 (centres undefined)
- AC50 (Cytochrome P450 2D6): 39.8 µM (inconclusive)
